The results in this text go back to patent publication US9951064B2, “Azaindazole compounds as inhibitors of T790M containing EGFR mutants” (Genentech, Inc., priority 2013, dated 2018).

In general, EC50 refers to the midpoint of the concentration-response curve.

Test [1] concerns H1975 (EGFR T790M/L858R) cell proliferation. Kind of test: H1975 proliferation assay (Cell Titer-Glo). The format is cell-based. Particulars: Homo sapiens, NCI-H1975, 72 h, NCI-H1975 cells, 72 hour incubation, read-out: H1975 antiproliferative EC50. The procedure: H1975 Proliferation Assays
All cell culture reagents were purchased from Invitrogen/Gibco. Cells are cultured at 37° C. at 5% CO2 and split as recommended by ATCC.
In general terms: In ATP-based viability assays light output follows the ATP content of the culture.

The target of a further test is T1, EGFR T790M L858R (Homo sapiens, UniProt P00533, L858R/T790M).
T1 construct: purchased Life Technologies PV4879
Description: EGFR T790M L858R biochemical assay (Caliper mobility shift). Particulars: 5 μM ATP; apparent Ki (Morrison fit) converted by Cheng-Prusoff, Km of ATP 1.3 μM. How it is done:
The exemplified compounds described herein were tested according to the assay below. The enzyme data reported in Tables 4-5 is generally a representative of multiple experiments.
Reactions proceed for 30 minutes at room temperature (22° C.) and are terminated with 80 mM 2,2′,2″,2′″-(ethane-1,2-diyldinitrilo)tetraacetic acid (EDTA). Product is detected using the Caliper mobility shift detection method where product and substrate are electrophoretically separated and measured.

Test [2] deals with T2, phosphor-EGFR in H1975(L585R/T790M) mutant EGFR expressing cells (Homo sapiens, UniProt P00533, L858R/T790M).
T2 construct: host or cells: NCI-H1975
Kind of test: H1975 pEGFR MSD cellular assay. The format is cell-based. Particulars: NCI-H1975 cells, serum starved, 1 hour compound incubation, pEGFR Tyr1068 MSD; read-out: HI975 pEGFR EC50. How it is done: H1975 pEGFR MSD Cellular Assays
These assays are intended for determining cellular. […] (Meso Scale Discovery Catalog# N31CB-1).
NCI-H1975 (ATCC Catalog# CRL-5908) cells are maintained in medium containing RPMI 1640, 10% FBS, 4 mM L-Glutamine, 1% Penicillin-Streptomycin, and 4.5 g/L Glucose. All cell culture reagents were purchased from Invitrogen/Gibco. Cells are cultured at 37° C. at 5% CO2 and split as recommended by ATCC.
Cell Plating and Serum Starvation:
H1975 cells are harvested and plated into sterile cell culture treated 384 well plates (Greiner catalog #781091) at a density of 30,000 cells/well in 50 ul culture medium and placed in a 37° C. at 5% CO2 incubator for six hours. After six hours, culture medium is aspirated and replaced with serum-free culture medium. Cells are then incubated with the serum-free medium overnight at 37° C. and 5% CO2.
The following day, test compounds are serially diluted in dimethyl sulfoxide (DMSO) and added to cells in serum free medium (final DMSO concentration 0.5%). Assay plates are then incubated for 1 hour at 37° C. and 5% CO2. Following 1 hour of compound incubation cells are then lysed and processed as per the MSD pEGFR assay kit protocol. Cell lysates are added to assay plates pre-coated with antibodies against phosphorylated EGFR. Phosphorylated EGFR in samples are allowed to bind to the capture antibodies overnight at 4° C. The detection antibody (anti-total EGFR, labeled with an electrochemiluminescent SULFO-TAG) is added to the bound lysate and incubated for 1 hour at room temperature. The MSD Read Buffer is added such that when a voltage is applied to the plate electrodes, the labels bound to the electrode surface emit light. The MSD Sector Instrument measures the intensity of the light, and quantitatively measures the amount of phosphorylated-EGFR in the sample. Percent inhibition of EGFR phosphorylation by varying concentrations of test compounds is calculated relative to untreated controls. EC50 values are calculated using the 4 parameter logistic nonlinear regression dose-response model.

Each structure is given as a SMILES string.

T2 sequence (P00533 25-1210 T790M/L858R): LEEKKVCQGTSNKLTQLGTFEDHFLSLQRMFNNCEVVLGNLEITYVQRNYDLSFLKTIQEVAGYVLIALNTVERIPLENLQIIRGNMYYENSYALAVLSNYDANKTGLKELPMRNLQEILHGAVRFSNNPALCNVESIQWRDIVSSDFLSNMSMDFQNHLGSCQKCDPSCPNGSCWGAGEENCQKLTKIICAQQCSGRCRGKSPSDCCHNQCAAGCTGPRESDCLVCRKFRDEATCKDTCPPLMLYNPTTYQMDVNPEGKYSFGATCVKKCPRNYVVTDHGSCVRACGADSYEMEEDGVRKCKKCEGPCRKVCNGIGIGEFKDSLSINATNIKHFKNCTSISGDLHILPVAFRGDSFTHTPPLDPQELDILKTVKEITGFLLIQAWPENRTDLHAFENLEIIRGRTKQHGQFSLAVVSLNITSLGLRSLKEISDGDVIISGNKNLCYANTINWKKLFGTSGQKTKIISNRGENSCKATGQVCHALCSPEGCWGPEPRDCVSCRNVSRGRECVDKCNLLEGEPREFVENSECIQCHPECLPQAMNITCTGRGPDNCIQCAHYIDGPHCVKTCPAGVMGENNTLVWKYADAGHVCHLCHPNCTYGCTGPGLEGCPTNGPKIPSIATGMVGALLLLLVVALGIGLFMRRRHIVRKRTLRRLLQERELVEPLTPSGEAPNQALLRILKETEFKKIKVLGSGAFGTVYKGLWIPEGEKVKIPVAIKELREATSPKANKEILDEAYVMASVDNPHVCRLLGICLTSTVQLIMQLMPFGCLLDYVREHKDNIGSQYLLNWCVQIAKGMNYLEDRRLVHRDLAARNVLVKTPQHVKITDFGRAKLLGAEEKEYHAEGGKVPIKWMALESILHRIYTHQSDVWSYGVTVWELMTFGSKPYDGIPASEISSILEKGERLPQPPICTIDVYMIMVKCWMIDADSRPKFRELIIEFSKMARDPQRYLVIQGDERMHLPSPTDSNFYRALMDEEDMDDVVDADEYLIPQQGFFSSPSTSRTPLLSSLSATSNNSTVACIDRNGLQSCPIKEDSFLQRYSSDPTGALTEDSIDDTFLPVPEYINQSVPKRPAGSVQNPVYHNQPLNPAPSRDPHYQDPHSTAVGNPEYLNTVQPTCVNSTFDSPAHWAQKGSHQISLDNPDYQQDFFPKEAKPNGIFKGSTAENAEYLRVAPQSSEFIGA
T1 sequence (P00533 25-1210 T790M/L858R): as above

On to `CC(C)n1nc(NCCC(N)=O)c2cnc(Nc3ccnc(-c4cnn(S(=O)(=O)C5CC5)c4)n3)cc21` [Example 47, 3-(6-(2-(1-(cyclopropylsulfonyl)-1H-pyrazol-4-yl)pyrimidin-4-ylamino)-1-isopropyl-1H-pyrazolo[4,3-c]pyridin-3-ylamino)propanamide], for which the EC50 in test [1] worked out at 3970 nM; in test [2], 874 nM. Besides, the Ki at EGFR T790M L858R was 0.8 nM.
Turning to `CC(C)n1nc(NCC(N)=O)c2cnc(Nc3ccnc(-c4cnn(S(=O)(=O)C5CC5)c4)n3)cc21` [Example 48, 2-(6-(2-(1-(cyclopropylsulfonyl)-1H-pyrazol-4-yl)pyrimidin-4-ylamino)-1-isopropyl-1H-pyrazolo[4,3-c]pyridin-3-ylamino)acetamide], the EC50 in test [1] turned out to be 5440 nM; in test [2], 1460 nM. Moreover, on EGFR T790M L858R, the Ki came to 0.6 nM.
In the case of `CC(C)n1nc(N2CC3(COC3)C2)c2cnc(Nc3ccnc(-c4cnn(CC5CC5)c4)n3)cc21` [Example 4, N-(2-(1-(Cyclopropylmethyl)-1H-pyrazol-4-yl)pyrimidin-4-yl)-1-isopropyl-3-(2-oxa-6-azaspiro[3.3]heptan-6-yl)-1H-pyrazolo[4,3-c]pyridin-6-amine], the EC50 in test [1] is 732 nM; in test [2], 219 nM. Besides, at EGFR T790M L858R, the Ki was found to be 3 nM.
As to `CC(C)n1nc(N2CC[C@@H](C#N)C2)c2cnc(Nc3ccnc(-c4cnn(S(=O)(=O)C5CC5)c4)n3)cc21` [Example 28, (R)-1-(6-((2-(1-(Cyclopropylsulfonyl)-1H-pyrazol-4-yl)pyrimidin-4-yl)amino)-1-isopropyl-1H-pyrazolo[4,3-c]pyridin-3-yl)pyrrolidine-3-carbonitrile], the EC50 in test [1] was determined as 121 nM; in test [2], 15.7 nM. Besides, the Ki on EGFR T790M L858R came to 0.8 nM.
`CCS(=O)(=O)n1cc(-c2nccc(Nc3cc4c(cn3)c(NC3COC3)nn4C(C)C)n2)cn1` [Example 16, N^6-(2-(1-(Ethylsulfonyl)-1H-pyrazol-4-yl)pyrimidin-4-yl)-1-isopropyl-N^3-(oxetan-3-yl)-1H-pyrazolo[4,3-c]pyridine-3,6-diamine]: the EC50 was 921 nM in test [1] and 79.7 nM in test [2]. Also, the Ki at EGFR T790M L858R is 1.1 nM.
As for `CC(C)n1nc(N[C@@H]2CCOC2)c2cnc(Nc3ccnc(-c4cnn(S(=O)(=O)C5CC5)c4)n3)cc21` [Example 40, (R)-N6-(2-(1-(cyclopropylsulfonyl)-1H-pyrazol-4-yl)pyrimidin-4-yl)-1-isopropyl-N3-(tetrahydrofuran-3-yl)-1H-pyrazolo[4,3-c]pyridine-3,6-diamine], the EC50 was determined as 775 nM in test [1] and 84.8 nM in test [2]. In addition, the Ki at EGFR T790M L858R was determined as 1.1 nM.
`CC(C)n1nc(N2CCS(=O)(=O)CC2)c2cnc(Nc3ccnc(-c4cnn(S(=O)(=O)C5CC5)c4)n3)cc21` [Example 1, 4-(6-((2-(1-(Cyclopropylsulfonyl)-1H-pyrazol-4-yl)pyrimidin-4-yl)amino)-1-isopropyl-1H-pyrazolo[4,3-c]pyridin-3-yl)thiomorpholine 1,1-dioxide]: the EC50 in test [1] came to 2020 nM; in test [2], 606 nM. The Ki at EGFR T790M L858R was found to be 609 nM.
For the compound `CC(C)n1nc(N2CC(C(=O)N(C)C)C2)c2cnc(Nc3ccnc(N4CCC(O)C(C)(C)C4)n3)cc21` (stereo not drawn) [Example 56, 1-(6-(2-(4-hydroxy-3,3-dimethylpiperidin-1-yl)pyrimidin-4-ylamino)-1-isopropyl-1H-pyrazolo[4,3-c]pyridin-3-yl)-N,N-dimethylazetidine-3-carboxamide], the EC50 came out at 348 nM in test [1] and 31.1 nM in test [2]. The Ki at EGFR T790M L858R came to 1.2 nM.
Take `CCS(=O)(=O)n1cc(-c2nccc(Nc3cc4c(cn3)c(N3CC(CO)C3)nn4C(C)C)n2)cn1` [Example 36, (1-(6-(2-(1-(ethylsulfonyl)-1H-pyrazol-4-yl)pyrimidin-4-ylamino)-1-isopropyl-1H-pyrazolo[4,3-c]pyridin-3-yl)azetidin-3-yl)methanol]: the 50% effective concentration (EC50) worked out at 397 nM in test [1] and 15.8 nM in test [2]. Also, the Ki on EGFR T790M L858R stood at 0.7 nM.
For `CC(C)n1nc(N2CCCC2)c2cnc(Nc3ccnc(-c4cnn(CC5CC5)c4)n3)cc21` [Example 31, N-(2-(1-(cyclopropylmethyl)-1H-pyrazol-4-yl)pyrimidin-4-yl)-1-isopropyl-3-(pyrrolidin-1-yl)-1H-pyrazolo[4,3-c]pyridin-6-amine], in that order: 1060 nM, 116 nM and 1.4 nM.
In the same order, the values of `CC(C)n1nc(N(C)CC(O)CO)c2cnc(Nc3ccnc(-c4cnn(S(=O)(=O)C5CC5)c4)n3)cc21` (stereo not drawn) [Example 49, 3-((6-(2-(1-(cyclopropylsulfonyl)-1H-pyrazol-4-yl)pyrimidin-4-ylamino)-1-isopropyl-1H-pyrazolo[4,3-c]pyridin-3-yl)(methyl)amino)propane-1,2-diol] are 945 nM, 98 nM and 0.7 nM.
Regarding `CCC(C)n1nc(N2CC3(COC3)C2)c2cnc(Nc3ccnc(-c4cnn(S(=O)(=O)C5CC5)c4)n3)cc21` (racemic) [Example 14, 1-(sec-Butyl)-N-(2-(1-(cyclopropylsulfonyl)-1H-pyrazol-4-yl)pyrimidin-4-yl)-3-(2-oxa-6-azaspiro[3.3]heptan-6-yl)-1H-pyrazolo[4,3-c]pyridin-6-amine], the EC50 in test [1] is 216 nM; in test [2], 19.3 nM. The Ki at EGFR T790M L858R was found to be 1 nM.
As to `CCC(C)n1nc(N2CCNC2=O)c2cnc(Nc3ccnc(N4CC[C@@H](OC)[C@@H](F)C4)n3)cc21` (mixture of isomers) [Example 26, (±)-1-(1-(sec-Butyl)-6-((2-(cis-3-fluoro-4-methoxypiperidin-1-yl)pyrimidin-4-yl)amino)-1H-pyrazolo[4,3-c]pyridin-3-yl)imidazolidin-2-one], the figures for the EC50 in test [1] and in test [2] were 108 nM and 14.4 nM, respectively. In addition, the Ki at EGFR T790M L858R worked out at 0.6 nM.
For the compound `COCCNC(=O)C1CN(c2nn(C(C)C)c3cc(Nc4ccnc(-c5cnn(S(=O)(=O)C6CC6)c5)n4)ncc23)C1` [Example 30, 1-(6-(2-(1-(Cyclopropylsulfonyl)-1H-pyrazol-4-yl)pyrimidin-4-ylamino)-1-isopropyl-1H-pyrazolo[4,3-c]pyridin-3-yl)-N-(2-methoxyethyl)azetidine-3-carboxamide], the EC50 in test [1] is 1450 nM; in test [2] it was 51.3 nM. For the same compound, the Ki at EGFR T790M L858R came out at 0.7 nM.
Consider `CC(C)n1nc(N2CC[C@@H](CO)C2)c2cnc(Nc3ccnc(-c4cnn(S(=O)(=O)C5CC5)c4)n3)cc21` [Example 41, (R)-(1-(6-(2-(1-(cyclopropylsulfonyl)-1H-pyrazol-4-yl)pyrimidin-4-ylamino)-1-isopropyl-1H-pyrazolo[4,3-c]pyridin-3-yl)pyrrolidin-3-yl)methanol], for which the values for the EC50 in test [1] and in test [2] were 162 nM and 9.4 nM, respectively. For the same compound, the Ki at EGFR T790M L858R was determined as 1.3 nM.
As to `CC(C)n1nc(N[C@H]2CCOC2)c2cnc(Nc3ccnc(-c4cnn(S(=O)(=O)C5CC5)c4)n3)cc21` [Example 39, (S)-N6-(2-(1-(cyclopropylsulfonyl)-1H-pyrazol-4-yl)pyrimidin-4-yl)-1-isopropyl-N3-(tetrahydrofuran-3-yl)-1H-pyrazolo[4,3-c]pyridine-3,6-diamine], the figures for the EC50 in test [1] and in test [2] were 373 nM and 71.1 nM, respectively. Besides, at EGFR T790M L858R, the Ki turned out to be 1.1 nM.
As for `CC(C)n1nc(N)c2cnc(Nc3ccnc(-c4cnn(S(=O)(=O)C5CC5)c4)n3)cc21` [Example 45, N^6-(2-(1-(cyclopropylsulfonyl)-1H-pyrazol-4-yl)pyrimidin-4-yl)-1-isopropyl-1H-pyrazolo[4,3-c]pyridine-3,6-diamine], the EC50 was 247 nM in test [1] and 63.8 nM in test [2]. The Ki at EGFR T790M L858R is 0.8 nM.
`CC(C)n1nc(N2CCOCC2)c2cnc(Nc3ccnc(-c4cnn(CC5CC5)c4)n3)cc21` [Example 9, N-(2-(1-(Cyclopropylmethyl)-1H-pyrazol-4-yl)pyrimidin-4-yl)-1-isopropyl-3-morpholino-1H-pyrazolo[4,3-c]pyridin-6-amine]: the EC50 was determined as 1840 nM in test [1] and 382 nM in test [2]. The Ki on EGFR T790M L858R was 5.2 nM.
